Assay results as given in publication PMC2834293 (Journal of medicinal chemistry, 2010).

Key:
[1] = Stability of stock solution in water; type: physicochemical; details: room temperature, two weeks
[2] = test system: fowl plague virus (FPV, Rostock strain); details: 25 μM inhibitor, up to 72 h
furin = details: read-out: Ki furin; cited from earlier work
[3] = target: recombinant soluble human furin (Homo sapiens, UniProt P09958); experiment: Enzyme kinetics with furin; type: biochemical
[4] = test system: fowl plague virus hemagglutinin cleavage in MDCK cells; type: cell-based, influenza virus A/FPV/Rostock/34 (H7N1); details: FPV-infected MDCK cells; data not shown

Sequence of recombinant soluble human furin (P09958 108-715 limits assumed): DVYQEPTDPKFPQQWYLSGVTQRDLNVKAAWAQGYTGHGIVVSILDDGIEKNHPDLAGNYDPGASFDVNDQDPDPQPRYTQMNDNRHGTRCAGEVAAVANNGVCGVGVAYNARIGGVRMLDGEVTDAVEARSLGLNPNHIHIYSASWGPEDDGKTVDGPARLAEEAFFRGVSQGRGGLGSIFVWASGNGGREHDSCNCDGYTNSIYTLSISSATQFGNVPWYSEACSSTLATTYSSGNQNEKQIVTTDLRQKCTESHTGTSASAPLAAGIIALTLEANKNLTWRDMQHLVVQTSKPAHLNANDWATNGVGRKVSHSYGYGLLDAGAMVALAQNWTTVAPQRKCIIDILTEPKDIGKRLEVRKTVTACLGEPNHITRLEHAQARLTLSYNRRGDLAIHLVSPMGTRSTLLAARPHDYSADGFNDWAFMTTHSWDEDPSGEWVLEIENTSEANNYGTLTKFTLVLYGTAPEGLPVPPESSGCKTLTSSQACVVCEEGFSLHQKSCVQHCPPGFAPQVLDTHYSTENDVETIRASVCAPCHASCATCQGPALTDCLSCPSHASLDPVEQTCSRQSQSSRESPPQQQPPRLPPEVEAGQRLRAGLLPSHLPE

| Compound | Ki [3] | activity in the cellular HA cleavage assay compared with inhibitor 15 [4] | other results |
| --- | --- | --- | --- |
| CC(C)[C@H](NC(=O)[C@H](CCCNC(=N)N)NC(=O)Cc1ccccc1)C(=O)N[C@@H](CCCNC(=N)N)C(=O)NCc1ccc(C(=N)N)cc1 [compound 15, Phac-Arg-Val-Arg-4-(amidomethyl)benzamidine] | – | – | change in HPLC elution profile on storage [1]: could not detect any change; viability of the cells in the presence of inhibitor ([2]; MDCK cells): not noticeably influenced; delay of virus release versus untreated infected cultures ([2]; MOI 10^-5, MDCK cells): about 24 h |
| nona-D-arginine | – | – | Ki (furin): 0.0013 µM |
| N=C(N)c1ccc(CN)cc1 [compound 1, 4-amidinobenzylamine] | 1200 µM | – | – |
| N=C(N)c1ccccc1 [benzamidine, reference compound] | 750 µM | – | – |
| CC(=O)N[C@@H](CCCNC(=N)N)C(=O)N[C@H](C(=O)N[C@@H](CCCNC(=N)N)C(=O)NCc1ccc(C(=N)N)cc1)C(C)C [compound 17] | – | reduced activity | – |
| CCCCCCCCCC(=O)N[C@@H](CCCNC(=N)N)C(=O)N[C@H](C(=O)N[C@@H](CCCNC(=N)N)C(=O)NCc1ccc(C(=N)N)cc1)C(C)C [compound 16] | – | Very similar results | – |
